Results reported in patent US20250064941A1, “SIGLEC LIGANDS, CONJUGATES, AND METHODS OF USE THEREOF” (Osprey Biopharmaceuticals, Inc., priority 2023, published 2025).

What was measured:
[1] = biological target: T1, mouse Siglec-2-Fc-Avi (CD22) (Mus musculus, UniProt P35329); assay: SPR binding affinity to mouse CD22; conditions: steady-state analysis
T1 construct: made in house
T1 sequence (P35329 22-708 limits assumed): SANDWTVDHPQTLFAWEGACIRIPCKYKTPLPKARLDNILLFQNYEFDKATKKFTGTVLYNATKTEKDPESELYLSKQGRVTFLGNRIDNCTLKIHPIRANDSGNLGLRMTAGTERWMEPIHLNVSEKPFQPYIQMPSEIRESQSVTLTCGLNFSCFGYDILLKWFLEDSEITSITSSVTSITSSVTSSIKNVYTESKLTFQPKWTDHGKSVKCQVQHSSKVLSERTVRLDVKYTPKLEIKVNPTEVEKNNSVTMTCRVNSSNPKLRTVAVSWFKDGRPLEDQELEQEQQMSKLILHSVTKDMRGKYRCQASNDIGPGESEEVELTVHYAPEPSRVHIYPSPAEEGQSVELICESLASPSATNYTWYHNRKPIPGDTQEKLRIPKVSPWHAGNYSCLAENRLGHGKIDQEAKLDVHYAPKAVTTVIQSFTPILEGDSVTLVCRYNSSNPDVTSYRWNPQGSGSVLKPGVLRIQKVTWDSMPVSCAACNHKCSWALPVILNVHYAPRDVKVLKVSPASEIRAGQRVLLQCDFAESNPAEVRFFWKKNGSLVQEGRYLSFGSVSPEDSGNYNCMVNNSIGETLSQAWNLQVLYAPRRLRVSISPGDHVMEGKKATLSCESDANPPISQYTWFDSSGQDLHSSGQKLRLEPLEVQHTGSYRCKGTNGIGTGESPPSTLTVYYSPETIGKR
In short: (§1)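 Using a Biacore 8K, compounds were tested against biotinylated CD22 captured after sialidase treatment. The running buffer held 1% DMSO, corrected with a 0.5–2% DMSO series. Affinity was derived by steady-state analysis.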

[2] = biological target: T2, human Siglec-2/CD22 protein (Homo sapiens, UniProt P20273); assay: SPR binding affinity to human CD22; conditions: steady-state analysis
T2 construct: purchased Acro Biosystems SI2-H82E3
T2 sequence (P20273 20-847): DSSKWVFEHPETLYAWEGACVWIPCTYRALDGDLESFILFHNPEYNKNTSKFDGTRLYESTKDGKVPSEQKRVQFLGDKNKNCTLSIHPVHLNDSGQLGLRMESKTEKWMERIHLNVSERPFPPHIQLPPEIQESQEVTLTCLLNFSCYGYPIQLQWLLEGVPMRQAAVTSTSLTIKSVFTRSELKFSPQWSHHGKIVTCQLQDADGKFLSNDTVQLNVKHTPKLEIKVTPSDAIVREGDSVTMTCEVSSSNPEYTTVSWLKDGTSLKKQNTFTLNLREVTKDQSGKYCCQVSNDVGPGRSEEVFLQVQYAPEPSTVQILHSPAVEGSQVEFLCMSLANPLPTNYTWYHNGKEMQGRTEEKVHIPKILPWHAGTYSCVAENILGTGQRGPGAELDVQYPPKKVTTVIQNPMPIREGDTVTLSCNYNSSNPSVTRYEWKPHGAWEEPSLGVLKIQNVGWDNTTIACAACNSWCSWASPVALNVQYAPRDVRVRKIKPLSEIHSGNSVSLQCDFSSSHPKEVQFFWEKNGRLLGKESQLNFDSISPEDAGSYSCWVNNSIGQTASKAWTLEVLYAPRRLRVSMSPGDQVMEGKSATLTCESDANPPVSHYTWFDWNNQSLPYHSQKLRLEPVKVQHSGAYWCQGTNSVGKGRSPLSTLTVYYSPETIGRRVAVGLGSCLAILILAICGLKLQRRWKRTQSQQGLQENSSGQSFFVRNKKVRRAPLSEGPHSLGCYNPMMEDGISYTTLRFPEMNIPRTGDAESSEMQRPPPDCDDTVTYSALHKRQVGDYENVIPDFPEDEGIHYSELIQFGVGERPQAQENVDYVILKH
In short: as §1

cynomolgus Siglec-2/CD22 = cynomolgus Siglec-2/CD22 (Macaca fascicularis, UniProt A0A2K5WCZ6); assay: biochemical; assay type: binding; conditions: SPR, steady-state analysis; read-out: Affinity cyno CD22
In short: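 Compound binding measured by steady-state SPR analysis, 120 s dissociation, in HEPES-NaCl-Tween buffer pH 7.5 containing 1% DMSO, DMSO solvent-corrected. Surface: cyno CD22, sialic acids first stripped by SialoExo for 4 h at 37° C., then amine-coupled onto CM5.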

cynomolgus Siglec-2/CD22, sequence (A0A2K5WCZ6 entry or part of it): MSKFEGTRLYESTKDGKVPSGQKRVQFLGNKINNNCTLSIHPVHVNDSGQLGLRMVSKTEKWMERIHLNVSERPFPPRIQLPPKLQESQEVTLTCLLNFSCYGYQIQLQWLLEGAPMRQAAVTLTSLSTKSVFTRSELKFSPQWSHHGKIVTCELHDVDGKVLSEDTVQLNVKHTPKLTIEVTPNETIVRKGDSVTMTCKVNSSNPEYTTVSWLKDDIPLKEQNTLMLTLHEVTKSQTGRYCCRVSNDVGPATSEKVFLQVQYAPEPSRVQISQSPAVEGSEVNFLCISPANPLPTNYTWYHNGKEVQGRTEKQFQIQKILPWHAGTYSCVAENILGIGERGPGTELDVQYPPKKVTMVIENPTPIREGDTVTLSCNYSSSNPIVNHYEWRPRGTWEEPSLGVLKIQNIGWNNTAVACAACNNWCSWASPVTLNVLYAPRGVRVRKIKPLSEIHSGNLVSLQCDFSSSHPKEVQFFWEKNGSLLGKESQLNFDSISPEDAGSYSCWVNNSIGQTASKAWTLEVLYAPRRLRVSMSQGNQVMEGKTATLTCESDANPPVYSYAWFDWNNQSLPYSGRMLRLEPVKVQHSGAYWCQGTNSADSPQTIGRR

C#CCCOc1ccc(CO[C@]2(C(=O)O)C[C@H](O)[C@@H](NC(=O)CO)[C@H]([C@H](O)[C@H](O)CNC(=O)Cc3cccc(N4CCOCC4)c3)O2)cc1 [Compound 140, (2R,4S,5R,6R)-2-((4-(but-3-yn-1-yloxy)benzyl)oxy)-6-((1R,2R)-1,2-dihydroxy-3-(2-(3-morpholinophenyl)acetamido)propyl)-4-hydroxy-5-(2-hydroxyacetamido)tetrahydro-2H-pyran-2-carboxylic acid]
Kd [1]: 1 to 10 µM | Kd [2]: 1 to 10 µM | Kd (cynomolgus Siglec-2/CD22): 1 to 10 µM

C#CCOCCCCCCO[C@]1(C(=O)O)C[C@H](O)[C@@H](NC(=O)C(N)=O)[C@H]([C@H](O)[C@H](O)CNC(=O)Cc2ccc(Cl)cc2)O1 [Compound 223, (2R,4S,5R,6R)-5-(2-amino-2-oxoacetamido)-6-((1R,2R)-3-(2-(4-chlorophenyl)acetamido)-1,2-dihydroxypropyl)-4-hydroxy-2-((6-(prop-2-yn-1-yloxy)hexyl)oxy)tetrahydro-2H-pyran-2-carboxylic acid]
Kd [1]: 1 to 10 µM | Kd [2]: < 1 µM | Kd (cynomolgus Siglec-2/CD22): 1 to 10 µM

CC(=O)NCCOCCOCCOCCOCCNC(=O)CCCCCCO[C@]1(C(=O)O)C[C@H](O)[C@@H](NC(=O)CO)[C@H]([C@H](O)[C@H](O)CNC(=O)Cc2ccc(-c3nnn[nH]3)cc2)O1 [Cpd. 266, (2R,4S,5R,6R)-6-((1R,2R)-3-(2-(4-(1H-tetrazol-5-yl)phenyl)acetamido)-1,2-dihydroxypropyl)-2-((2,19-dioxo-6,9,12,15-tetraoxa-3,18-diazapentacosan-25-yl)oxy)-4-hydroxy-5-(2-hydroxyacetamido) tetrahydro-2H-pyran-2-carboxylic acid]
Kd [1]: 1 to 10 µM | Kd [2]: < 1 µM | Kd (cynomolgus Siglec-2/CD22): < 1 µM

CCCCCCC[C@]1(C(=O)O)C[C@H](O)[C@@H](NC(=O)CO)[C@H]([C@H](O)[C@H](O)CNC(=O)Cc2ccc(Cl)cc2)O1 [Compound 206, (2R,4S,5R,6R)-6-((1R,2R)-3-(2-(4-chlorophenyl)acetamido)-1,2-dihydroxypropyl)-2-heptyl-4-hydroxy-5-(2-hydroxyacetamido)tetrahydro-2H-pyran-2-carboxylic acid]
Kd [1]: 1 to 10 µM | Kd [2]: < 1 µM | Kd (cynomolgus Siglec-2/CD22): < 1 µM

C#CCOCCOCCO[C@]1(C(=O)O)C[C@H](O)[C@@H](NC(=O)CO)[C@H]([C@H](O)[C@H](O)CNC(=O)Cc2ccc(-c3cccc(C#N)c3)cc2)O1 [Compound 81, (2R,4S,5R,6R)-6-((1R,2R)-3-(2-(3′-cyano-[1,1′-biphenyl]-4-yl)acetamido)-1,2-dihydroxypropyl)-4-hydroxy-5-(2-hydroxyacetamido)-2-(2-(2-(prop-2-yn-1-yloxy)ethoxy)ethoxy)tetrahydro-2H-pyran-2-carboxylic acid]
Kd [1]: > 10 µM | Kd [2]: 1 to 10 µM | Kd (cynomolgus Siglec-2/CD22): 1 to 10 µM

C#CCOCCOCCO[C@]1(C(=O)O)C[C@H](O)[C@@H](NC(=O)C(F)F)[C@H]([C@H](O)[C@H](O)CNC(=O)Cc2ccc(-c3ccc(O)cc3)cc2)O1 [Compound 76, (2R,4S,5R,6R)-5-(2,2-difluoroacetamido)-6-((1R,2R)-1,2-dihydroxy-3-(2-(4′-hydroxy-[1,1′-biphenyl]-4-yl)acetamido)propyl)-4-hydroxy-2-(2-(2-(prop-2-yn-1-yloxy)ethoxy)ethoxy)tetrahydro-2H-pyran-2-carboxylic acid]
Kd [1]: 1 to 10 µM | Kd [2]: < 1 µM | Kd (cynomolgus Siglec-2/CD22): 1 to 10 µM

CC(=O)NCCOCCOCCOCCOCCn1cc(CCCCCCO[C@]2(C(=O)O)C[C@H](O)[C@@H](NC(=O)CO)[C@H]([C@H](O)[C@H](O)CNC(=O)Cc3ccc(C(F)F)cc3)O2)nn1 [Compound 253, (2R,4S,5R,6R)-6-((1R,2R)-3-(2-(4-(difluoromethyl)phenyl)acetamido)-1,2-dihydroxypropyl)-4-hydroxy-5-(2-hydroxyacetamido)-2-((6-(1-(2-oxo-6,9,12,15-tetraoxa-3-azaheptadecan-17-yl)-1H-1,2,3-triazol-4-yl)hexyl)oxy)tetrahydro-2H-pyran-2-carboxylic acid]
Kd [1]: < 1 µM | Kd [2]: < 1 µM | Kd (cynomolgus Siglec-2/CD22): < 1 µM

C#CCOCCOCCO[C@]1(C(=O)O)C[C@H](O)[C@@H](NC(=O)NCC(F)(F)F)[C@H]([C@H](O)[C@H](O)CNC(=O)Cc2ccc(-c3ccc(O)cc3)cc2)O1 [Compound 199, (2R,4S,5R,6R)-6-((1R,2R)-1,2-dihydroxy-3-(2-(4′-hydroxy-[1,1′-biphenyl]-4-yl)acetamido)propyl)-4-hydroxy-2-(2-(2-(prop-2-yn-1-yloxy)ethoxy)ethoxy)-5-(3-(2,2,2-trifluoroethyl)ureido)tetrahydro-2H-pyran-2-carboxylic acid]
Kd [1]: > 10 µM | Kd [2]: > 10 µM | Kd (cynomolgus Siglec-2/CD22): > 10 µM

C#CCOCCOCCO[C@]1(C(=O)O)C[C@H](O)[C@@H](NC(=O)NC)[C@H]([C@H](O)[C@H](O)CNC(=O)Cc2ccc(-c3ccc(O)cc3)cc2)O1 [Compound 70, (2R,4S,5R,6R)-6-((1R,2R)-1,2-dihydroxy-3-(2-(4′-hydroxy-[1,1′-biphenyl]-4-yl)acetamido)propyl)-4-hydroxy-5-(3-methylureido)-2-(2-(2-(prop-2-yn-1-yloxy)ethoxy)ethoxy)tetrahydro-2H-pyran-2-carboxylic acid]
Kd [1]: 1 to 10 µM | Kd [2]: < 1 µM | Kd (cynomolgus Siglec-2/CD22): 1 to 10 µM

C#CCCOc1ccc(CO[C@]2(C(=O)O)C[C@H](O)[C@@H](NC(=O)CO)[C@H]([C@H](O)[C@H](O)CNC(=O)C(C)(O)c3ccccc3)O2)cc1 (stereo partly drawn) [Compound 169, (2R,4S,5R,6R)-2-((4-(but-3-yn-1-yloxy)benzyl)oxy)-6-((1R,2R)-1,2-dihydroxy-3-(2-hydroxy-2-phenylpropanamido)propyl)-4-hydroxy-5-(2-hydroxyacetamido)tetrahydro-2H-pyran-2-carboxylic acid]
Kd [1]: > 10 µM | Kd [2]: 1 to 10 µM | Kd (cynomolgus Siglec-2/CD22): 1 to 10 µM

C#CCOc1ccc(CO[C@]2(C(=O)O)C[C@H](O)[C@@H](NC(=O)CO)[C@H]([C@H](O)[C@H](O)CNC(=O)Cc3ccc(F)cc3)O2)cc1 [Compound 166, (2R,4S,5R,6R)-6-((1R,2R)-3-(2-(4-fluorophenyl)acetamido)-1,2-dihydroxypropyl)-4-hydroxy-5-(2-hydroxyacetamido)-2-((4-(prop-2-yn-1-yloxy)benzyl)oxy)tetrahydro-2H-pyran-2-carboxylic acid]
Kd [1]: 1 to 10 µM | Kd [2]: < 1 µM | Kd (cynomolgus Siglec-2/CD22): 1 to 10 µM

CC(=O)NCCOCCOCCOCCOCCNc1c(NCCCCCCO[C@]2(C(=O)O)C[C@H](O)[C@@H](NC(=O)CO)[C@H]([C@H](O)[C@H](O)CNC(=O)Cc3ccc(C(F)F)cc3)O2)c(=O)c1=O [Cpd. 258, (2R,4S,5R,6R)-6-((1R,2R)-3-(2-(4-(difluoromethyl)phenyl)acetamido)-1,2-dihydroxypropyl)-2-((6-((3,4-dioxo-2-((2-oxo-6,9,12,15-tetraoxa-3-azaheptadecan-17-yl)amino)cyclobut-1-en-1-yl)amino)hexyl)oxy)-4-hydroxy-5-(2-hydroxyacetamido)tetrahydro-2H-pyran-2-carboxylic acid]
Kd [1]: < 1 µM | Kd [2]: < 1 µM | Kd (cynomolgus Siglec-2/CD22): < 1 µM
